The values that follow come from the NIST ThermoML archive (doi:10.1021/acs.jced.6b00219).

Numbers after ± are expanded uncertainties.

The conditions of series [1]: Crystal; DTA.
Series [2] can be described thus: Molar enthalpy of transition or fusion. The conditions noted are these: Crystal; DSC.

Regarding `O=[N+]([O-])c1cn[nH]c1[N+](=O)[O-]` [3,4-dinitro-1H-pyrazole], the Normal melting temperature in series [1] is 87.83 ± 1.1 °C. Besides, the “Molar enthalpy of transition or fusion” value in series [2] stood at 2.81 ± 0.203 kcal/mol.
